Results on one compound are retold here after US7741344B2, “Process for preparing purified S-BEL and R-BEL and compositions thereof” (Washington University in St. Louis, priority 2002, dated 2010).

For test [1], the system named is purified recombinant iPLA2β. Briefly: Assay of iPLA2β inhibition by BEL (radiolabeled phospholipid substrate). As to conditions: FIG. 4A. The format is biochemical.
Protocol: Recombinant iPLA2 Enzymes—Recombinant iPLA2β was expressed and purified from Sf9 cells as previously described (35).
Assay of iPLA2β and iPLA2γ Inhibition by BEL—Purified recombinant iPLA2β or Sf9 cell membranes containing recombinant iPLA2γ were incubated with (R) BEL, (S) BEL, racemic BEL, or ethanol vehicle for 3 mm at 22° C. in the presence of 100 mM Tris-HCl (pH 7.0) and 4 mM EGTA (for iPLA2β) or 100 mM Tris-acetate (pH 8.0) and 4 mM EGTA (for iPLA2γ). The concentration of BEL used for each test ranged from 0 to 16 μM. L-α-1-palmitoyl-2-[1^14C]-arachidonyl-phosphatidylcholine (5 μM final concentration) or L-α-1-palmitoyl-2-[1-^14C]-oleoyl-phosphatidylcholine (5 μM final concentration) in ethanol was then added to each sample and incubated at 37° C. for 2 min. Reactions were terminated by extraction of radiolabeled products into butanol, and reactants and products were separated by thin layer chromatography using Whatman LK6D 60 Å Silica Gel plates with petroleum ether/ethyl ether/acetic acid (70:30:1) as the mobile phase. Regions corresponding to the migration of a fatty acid standard visualized by iodine staining were scraped into vials and radioactivity was quantified by scintillation spectrometry.
Panel A—Purified recombinant iPLA2β (1 μg/ml) in 100 mM Tris-HCl, pH 7.3 containing 1 mM EGTA was preincubated at 22° C. for 3 mm in the presence of the indicated concentrations of (R)-, (S)-, or rac-BEL or ethanol vehicle alone (1% final concentration). Radiolabeled substrate (L-α-1-palmitoyl-2-[1-^14C]-arachidonyl-phosphatidylcholine, 5 μM final concentration) was then added to each reaction and incubated at 37° C. for 2 min. Reactions were terminated by extraction of remaining substrate and products into butanol, separation by TLC, and quantification of released radiolabeled fatty acid by scintillation spectrometry as described in Experimental Procedures.
The subject of test [2] is cytosolic phosphatidate phosphohydrolase (PAP-1). Briefly: Cytosolic phosphatidate phosphohydrolase activity of A-10 cell cytosol fraction. The format is biochemical, rat. As to conditions: concentrations up to 200 μM BEL; FIG. 6A. The method, then:
(§1) Measurement of Cytosolic and Membrane-bound Phosphatidate Phosphohydrolase Activities—A-10 cells were grown to confluency, washed twice in ice-cold phosphate-buffered saline, and harvested in lysis buffer (50 mM Tris-HCl, pH 7.4 containing 0.25 M sucrose and 0.2 mM DTT). After brief sonication utilizing a Vibra-Cell VC4O sonicator (5×1 s pulses at 30% power), the lysed cell suspension was centrifuged at 100,000×g for 1 hr to separate cytosolic and membrane fractions. In some tests, A-10 cells were washed and pretreated with BEL or ethanol vehicle (as described above for tests examining [^3H]-AA liberation) before isolation of cell homogenates. […] Reactions were terminated with 900 μL of 5% acetic acid and extracted into chloroform by the method of Bligh and Dyer (38) prior to separating dipaliitoyl glycerol by TLC utilizing chloroform: methanol: water (65:35:2) as the mobile phase prior to quantification by scintillation spectrometry.
(§2) A-10 cells plated on 100 mm dishes were washed 2× in ice-cold PBS and harvested in lysis buffer (50 mM Tris-HCl, pH 7.4 containing 0.25 M sucrose and 0.2 mM DTT). […] In panel B, intact A-10 cells were washed and pretreated with BEL or ethanol vehicle (as described in FIG. 5) before isolation of the cell homogenate and quantification of phosphatidate phosphohydrolase activity as described above. […]

Test [3] deals with membrane-bound phosphatidate phosphohydrolase (PAP-2). Briefly: Membrane-bound phosphatidate phosphohydrolase activity of A-10 cell membrane fraction. The format is biochemical, rat. As to conditions: concentrations up to 200 μM BEL; FIG. 6A. The method, then:
as §1, §2

Test [4] deals with phosphatidate phosphohydrolase in A-10 cells. Briefly: Total phosphatidate phosphohydrolase activity in homogenates of intact A-10 cells pretreated with BEL. Type of test: cell-based, rat. Conditions: intact A-10 cells exposed to up to 100 μM; FIG. 6B. The protocol: as §1, §2
Another test concerns the target T1, recombinant human iPLA2γ (Homo sapiens, UniProt Q9NP80).
T1 construct: Recombinant full-length iPLA2γ was expressed in Sf9 cells; made in house; host or cells: Sf9 cells (washed membrane fraction, not purified)
T1 sequence (Q9NP80 1-782): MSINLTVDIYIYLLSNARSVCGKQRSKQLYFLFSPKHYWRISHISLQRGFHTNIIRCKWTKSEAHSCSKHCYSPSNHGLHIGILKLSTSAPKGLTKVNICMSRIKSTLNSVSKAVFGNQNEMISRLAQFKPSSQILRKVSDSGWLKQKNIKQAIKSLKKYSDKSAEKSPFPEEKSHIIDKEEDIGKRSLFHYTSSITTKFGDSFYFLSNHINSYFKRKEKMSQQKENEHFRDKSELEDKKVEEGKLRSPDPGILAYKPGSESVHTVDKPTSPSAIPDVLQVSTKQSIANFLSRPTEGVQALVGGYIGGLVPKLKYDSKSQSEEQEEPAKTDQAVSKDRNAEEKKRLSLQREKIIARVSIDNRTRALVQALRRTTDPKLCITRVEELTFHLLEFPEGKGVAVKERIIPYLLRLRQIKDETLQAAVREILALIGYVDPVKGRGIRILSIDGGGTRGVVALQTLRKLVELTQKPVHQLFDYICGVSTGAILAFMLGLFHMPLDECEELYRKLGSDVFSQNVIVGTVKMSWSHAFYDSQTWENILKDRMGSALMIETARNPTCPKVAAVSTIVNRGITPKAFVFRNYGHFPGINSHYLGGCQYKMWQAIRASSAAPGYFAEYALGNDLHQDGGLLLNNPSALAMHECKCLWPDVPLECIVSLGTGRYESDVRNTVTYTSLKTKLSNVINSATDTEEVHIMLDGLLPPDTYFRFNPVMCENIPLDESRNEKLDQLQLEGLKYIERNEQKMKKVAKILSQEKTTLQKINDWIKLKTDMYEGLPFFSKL
Conditions: previous experiments (24, 31); cited from earlier work.

For test [5], the system named is iPLA2 vs. cPLA2 and SPLA2 family members. Conditions: (31, 32); cited from earlier work.
Test [6] relates to magnesium-dependent cytozoic phosphatidate phosphohydrolase, PAP-1. As to conditions: 25 μM BEL; (33, 34); cited from earlier work.
Test [7] deals with PAP-1 in human amnionic WISH cells. Conditions: ≈25 μM; (34); cited from earlier work.
The test system of test [8] is cytosolic PAP-1 in McA-RH7777 rat hepatoma cells. As to conditions: 100 μM BEL; (17); cited from earlier work.
Another test has as its system A-10 cells. Conditions: cited from earlier work.
For a further test, the system named is P388D1 macrophages. Conditions: up to 5 μM BEL; (15); cited from earlier work.

What is called IC50 is the concentration that inhibits the measured activity by half. As to `O=C1OC(=CBr)CCC1c1cccc2ccccc12` (racemic) [rac-BEL, Racemic (E)-6-(bromomethylene)-3-(1-naphthalenyl)-2H-tetrahydropyran-2-one], the “inhibitory potency on iPLA2β relative to the enantiomers” value in [1] is “intermediate of that of (R)-BEL and (S)-BEL”. Also, the “effect on cytosolic (PAP-1) phosphatidate phosphohydrolase” value in [2] is “lack of any effect”. In addition, the “effect on membrane-bound (PAP-2) phosphatidate phosphohydrolase” value in test [3] was “lack of any effect”. For the same compound, the “total phosphatidate phosphohydrolase activity in comparison to ethanol-treated controls” value in [4] is “did not inhibit”. In addition, on recombinant human iPLA2γ, the concentration for half-maximal inhibition (IC50) was around 3 µM. In addition, the “selectivity iPLA2 vs. cPLA2 and SPLA2 family members” value in [5] is recorded as 1000 fold. Also, in [6], the “inhibition of PAP-1” value is “partially inhibit”. Besides, in test [7], the “inhibition of PAP-1 in human amnionic WISH cells” value was “effectively inhibit”. In addition, in test [8], the “inhibition of cytosolic PAP-1 activity in McA-RH7777 cells” value is recorded as “not significantly inhibited”. Further, the “release of IP2 or IP3 in A-10 cells” value in the test with A-10 cells is listed as “does not inhibit”. Besides, in the test on P388D1 macrophages, the “levels of diacylglycerol or phosphatidic acid formed upon stimulation with zymosan” value is listed as “does not significantly effect”.
